The text below walks through data of US10987349B2, “Antitumor agent and bromodomain inhibitor” (FUJIFILM Corporation, priority 2016, dated 2021).

The target in one assay is T1, BRD2 BD2 (Homo sapiens, UniProt P25440).
T1 construct: BRD2 BD2, BRD3 BD2 and BRD4 BD2 (Cisbio); purchased Cisbio
In words: Binding assay, BRD2 BD2 to acetylated histone H4 Peptide-Biotin (EPIgeneous Binding Domain Kit B). The conditions noted are these: for inhibition at 0.3 µM: test compound at 300 nmol/L, read-out: Binding inhibition percentage BRD2 BD2. Summed up: (§1)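 HTRF binding of GST-tagged BD2 (20 nmol/L working stock) to biotinylated acetyl-histone H4 peptide (250 nmol/L working stock), using streptavidin-XL665 and anti-GST Eu cryptate. Incubated 20 h at room temperature; 665/620 nm ratio versus DMSO gives % inhibition; IC50 by four-parameter fit, or % inhibition at 300 nmol/L.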

The next assay addresses T2, BRD4 BD2 (Homo sapiens, UniProt O60885).
T2 construct: BRD2 BD2, BRD3 BD2 and BRD4 BD2 (Cisbio); purchased Cisbio
Kind of assay: Binding assay, BRD4 BD2 to acetylated histone H4 Peptide-Biotin (EPIgeneous Binding Domain Kit B). The conditions noted are these: for inhibition at 0.3 µM: test compound at 300 nmol/L, read-out: Binding inhibition percentage BRD4 BD2. Summed up: as §1

The test system of assay [1] is human acute myeloid leukemia cell line MV4-11. In words: Cell growth test (Cell Titer Glo) MV4-11. In kind it is cell-based. The conditions noted are these: 3 to 5 days. The text has this:
(§2) The human undifferentiated thymoma cell line Ty-82 (JCRB), the human acute myeloid leukemia cell lines MV4-11 (ATCC), MOLM-13 (ATCC) and RS4-11 (ATCC), the human lymphoma cell line Raji (JCRB), the human cervical epidermoid carcinoma cell line Hela (JCRB), the human lung adenocarcinoma cell line A549 (ATCC), the human colon cancer cell lines DLD1 (DS Pharma) and HCT116 (DS Pharma), and the human pancreatic cancer cell line MIAPACA-2 (ATCC) were used to carry out a cell growth test.
Ty-82, MV4-11, MOLM-13, RS4-11, Raji and DLD1 were each seeded in a well plate, in which Roswell Park Memorial Institute (RPMI)-1640 medium supplemented with penicillin/streptomycin and fetal bovine serum (FBS) with a final concentration of 10% was placed. Hela was seeded in Dulbecco's Modified Eagle's medium (DMEM) supplemented with penicillin/streptomycin and FBS with a final concentration of 10%. A549 and MIAPACA-2 were each seeded in a well plate, in which Minimum Essential Medium (MEM) supplemented with penicillin/streptomycin and FBS with a final concentration of 10% was placed. HCT116 was seeded in a well plate, in which McCoy's 5A medium supplemented with penicillin/streptomycin and FBS with a final concentration of 10% was placed.
(§3) Thereafter, a medium containing a test compound serially diluted with DMSO, or DMSO, was added to each well of the plate, in which the cells had been seeded, and the obtained mixture was then cultured under conditions of 37° C. and 5% CO2 for 3 to 5 days. Cell Titer Glo reaction solution (Promega) was added to the culture, and the amount of luminescence was then measured using Envision plate reader (PerkinElmer). Since the amount of luminescence is in proportion to the concentration of adenosine triphosphate (ATP) in cells, the amount of luminescence was used as an indicator of the number of living cells. The growth inhibition percentage of the test compound in each concentration was calculated according to the following equation. Growth inhibition percentage (%)=(amount of luminescence in test compound−added well)/(amount of luminescence in DMSO−added well)×100
The growth inhibition percentage of the test compound in each concentration was plotted by performing a non-linear regression analysis [(log (inhibitor) vs. response—Variable slope (four parameters)], using Graphpad prism 5, and a 50% growth inhibitory concentration [GI50 (nmol/L)] was then calculated.
(In ATP-based viability assays light output follows the ATP content of the culture.)

The target in a further assay is T3, BRD4 BD1 (Homo sapiens, UniProt O60885).
T3 construct: BRD2 BD1, BRD3 BD1 and BRD4 BD1 (Cisbio); purchased Cisbio
In words: Binding assay, BRD4 BD1 to acetylated histone H4 Peptide-Biotin (EPIgeneous Binding Domain Kit A). Conditions: for inhibition at 0.3 µM: test compound at 300 nmol/L, read-out: Binding inhibition percentage BRD4 BD1. Summed up: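 HTRF competition: bromodomain protein (added at 20 nmol/L) and biotinylated tetra-acetyl H4(1-25) peptide (added at 25 nmol/L) were incubated with compound, streptavidin-d2 and anti-GST Eu cryptate for 20 h at room temperature. Inhibition came from the 665/620 nm ratio relative to DMSO; IC50 by four-parameter fit; some compounds were tested only at 300 nmol/L final.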

For assay [2], the system named is human cervical epidermoid carcinoma cell line Hela. In words: Cell growth test (Cell Titer Glo) Hela. The class given is cell-based. The conditions noted are these: 3 to 5 days.
Text: as §2
(§4) Ty-82, MV4-11, MOLM-13, RS4-11, Raji and DLD1 were each seeded in a well plate, in which Roswell Park Memorial Institute (RPMI)-1640 medium supplemented with penicillin/streptomycin and fetal bovine serum (FBS) with a final concentration of 10% was placed. Hela was seeded in Dulbecco's Modified Eagle's medium (DMEM) supplemented with penicillin/streptomycin and FBS with a final concentration of 10%. A549 and MIAPACA-2 were each seeded in a well plate, in which Minimum Essential Medium (MEM) supplemented with penicillin/streptomycin and FBS with a final concentration of 10% was placed. […]
as §3, with “well)×100 […]” for “well)×100”

The test system of assay [3] is human lung adenocarcinoma cell line A549. Kind of assay: Cell growth test (Cell Titer Glo) A549. The class given is cell-based. Conditions: 3 to 5 days.
Text: as §2, §4
as §3, with “well)×100 […]” for “well)×100”

T1 sequence (P25440 344-453 limits assumed): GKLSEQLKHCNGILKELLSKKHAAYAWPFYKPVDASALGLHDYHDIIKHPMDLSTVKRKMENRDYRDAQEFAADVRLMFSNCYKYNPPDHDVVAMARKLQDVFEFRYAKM

Usually IC50 stands for the midpoint of a concentration-inhibition curve. The low end stands for greater potency in that assay, the high end for weaker potency in that assay. The inhibition is how much of the control response was suppressed. In general, GI50 refers to the concentration that inhibits growth by half. As for `CCn1c(=O)cc(C2CCN(C)CC2)c2cc(C(=O)N(C)c3ccc(C)cc3)ccc21` [Example 14, 1-Ethyl-N-methyl-N-(4-methylphenyl)-4-(1-methylpiperidin-4-yl)-2-oxo-1,2-dihydroquinoline-6-carboxamide], the IC50 was determined as 94 nM at BRD2 BD2, 27 nM at BRD4 BD2 and 5 nM at BRD4 BD1. Further, the inhibition at 0.3 µM on BRD2 BD2 was 74%; at BRD4 BD2, 82%; at BRD4 BD1, 93%. Moreover, the figures for the GI50 in assay [1], in assay [2] and in assay [3] were 16 nM, 570 nM and 665 nM, respectively.
With `CCn1c(=O)cc(C2CCN(C)CC2)c2cc(C(=O)N(C)c3ccc4c(c3)CCC4)ccc21` [Example 17, N-(2,3-dihydro-1H-inden-5-yl)-1-ethyl-N-methyl-4-(1-methylpiperidin-4-yl)-2-oxo-1,2-dihydroquinoline-6-carboxamide], the IC50 at BRD2 BD2 stood at 33 nM; at BRD4 BD2 it was 10 nM; on BRD4 BD1 it was 3 nM. Further, the inhibition at 0.3 µM at BRD2 BD2 was 85%; on BRD4 BD2, 88%; at BRD4 BD1, 94%. Besides, the GI50 in assay [1] stood at 8 nM; in assay [2], 314 nM; in assay [3], 292 nM.
With `CCn1c(=O)cc(N2CCOCC2)c2cc(-n3c(-c4ccc(Cl)cc4)c[nH]c3=O)ccc21` [Example 245, 6-(5-(4-chlorophenyl)-2-oxo-2,3-dihydro-1H-imidazol-1-yl)-1-ethyl-4-(morpholin-4-yl)quinolin-2(1H)-one], the concentration for half-maximal inhibition (IC50) was 7 nM at BRD2 BD2, 3 nM on BRD4 BD2 and 20 nM on BRD4 BD1. Also, the inhibition at 0.3 µM at BRD2 BD2 is 89%; at BRD4 BD2, 88%; at BRD4 BD1, 91%. For the same molecule, the concentration for 50% growth inhibition (GI50) is 15 nM in assay [1], 1860 nM in assay [2] and 1740 nM in assay [3].
